Measurements from ChEMBL document CHEMBL1140726, “Discovery and biological evaluation of 5-aryl-2-furfuramides, potent and selective blockers of the Nav1.8 sodium channel with efficacy in models of neuropathic and inflammatory pain” (J Med Chem, 2008).
pIC50: −log10 of the molar value.

Tests used:
[1] = Oral bioavailability in Sprague-Dawley rat at 10 mg/kg; type: ADME, organism-based; conditions: in vivo
[2] = target: T1, Sodium channel protein type 10 subunit alpha (Homo sapiens, UniProt Q9Y5Y9); assay: Activity at human recombinant Nav 1.8 channel expressed in HEK293 cells in inactivated state with prepulse voltage of -40 mV assessed as blockade of TTx-resistant sodium current at 0.1 uM; type: cell-based
[3] = target: T1, Sodium channel protein type 10 subunit alpha; assay: Inhibition of human recombinant Nav 1.8 channel expressed in HEK293 cells at 1 uM; type: cell-based
[4] = Aqueous solubility of the compound; type: physicochemical
[5] = target: Sodium channel protein type 10 subunit alpha (Mus musculus, UniProt Q6QIY3); assay: Inhibition of mouse recombinant Nav 1.8 channel expressed in HEK293 cells by isotopic efflux assay; type: cell-based
[6] = Activity at rat dorsal root ganglion in resting state with prepulse voltage of -100 mV assessed as blockade of TTx-resistant sodium current at 1 uM by whole-cell patch clamp technique; type: functional
[7] = target: Sodium channel protein type 2 subunit alpha (Homo sapiens) (UniProt Q99250); assay: Inhibition of human Nav1.2 channel at 1 uM
[8] = target: T1, Sodium channel protein type 10 subunit alpha; assay: Activity at human recombinant Nav 1.8 channel expressed in HEK293 cells in resting state with prepulse voltage of -100 mV assessed as blockade of TTx-resistant sodium current at 1 uM; type: cell-based
[9] = target: T1, Sodium channel protein type 10 subunit alpha; assay: Activity at human recombinant Nav 1.8 channel expressed in HEK293 cells in resting state with prepulse voltage of -100 mV assessed as blockade of TTx-resistant sodium current at 0.1 uM; type: cell-based
[10] = Activity at rat dorsal root ganglion in resting state with prepulse voltage of -100 mV assessed as blockade of TTx-resistant sodium current at 0.3 uM by whole-cell patch clamp technique; type: functional
[11] = target: T1, Sodium channel protein type 10 subunit alpha; assay: Inhibition of human recombinant Nav 1.8 channel expressed in HEK293 cells at 0.1 uM; type: cell-based
[12] = Intrinsic clearance in Sprague-Dawley rat microsomes after 1 hr; type: ADME, Liver, Microsome
[13] = target: Voltage-gated inwardly rectifying potassium channel KCNH2 (Homo sapiens, UniProt Q12809); assay: Inhibition of hERG potassium channel expressed in CHO cells by isotope efflux assay
[14] = Activity at rat dorsal root ganglion in inactivated state with prepulse voltage of -40 mV assessed as blockade of TTx-resistant sodium current at 0.3 uM by whole-cell patch clamp technique; type: functional
[15] = Activity at rat dorsal root ganglion in inactivated state with prepulse voltage of -40 mV assessed as blockade of TTx-resistant sodium current at 1 uM by whole-cell patch clamp technique; type: functional
[16] = target: Sodium channel protein type 3 subunit alpha (Homo sapiens) (UniProt Q9NY46); assay: Inhibition of human Nav1.3 channel at 1 uM
Chain of Sodium channel protein type 3 subunit alpha (Homo sapiens) (Q9NY46 whole entry, looked up): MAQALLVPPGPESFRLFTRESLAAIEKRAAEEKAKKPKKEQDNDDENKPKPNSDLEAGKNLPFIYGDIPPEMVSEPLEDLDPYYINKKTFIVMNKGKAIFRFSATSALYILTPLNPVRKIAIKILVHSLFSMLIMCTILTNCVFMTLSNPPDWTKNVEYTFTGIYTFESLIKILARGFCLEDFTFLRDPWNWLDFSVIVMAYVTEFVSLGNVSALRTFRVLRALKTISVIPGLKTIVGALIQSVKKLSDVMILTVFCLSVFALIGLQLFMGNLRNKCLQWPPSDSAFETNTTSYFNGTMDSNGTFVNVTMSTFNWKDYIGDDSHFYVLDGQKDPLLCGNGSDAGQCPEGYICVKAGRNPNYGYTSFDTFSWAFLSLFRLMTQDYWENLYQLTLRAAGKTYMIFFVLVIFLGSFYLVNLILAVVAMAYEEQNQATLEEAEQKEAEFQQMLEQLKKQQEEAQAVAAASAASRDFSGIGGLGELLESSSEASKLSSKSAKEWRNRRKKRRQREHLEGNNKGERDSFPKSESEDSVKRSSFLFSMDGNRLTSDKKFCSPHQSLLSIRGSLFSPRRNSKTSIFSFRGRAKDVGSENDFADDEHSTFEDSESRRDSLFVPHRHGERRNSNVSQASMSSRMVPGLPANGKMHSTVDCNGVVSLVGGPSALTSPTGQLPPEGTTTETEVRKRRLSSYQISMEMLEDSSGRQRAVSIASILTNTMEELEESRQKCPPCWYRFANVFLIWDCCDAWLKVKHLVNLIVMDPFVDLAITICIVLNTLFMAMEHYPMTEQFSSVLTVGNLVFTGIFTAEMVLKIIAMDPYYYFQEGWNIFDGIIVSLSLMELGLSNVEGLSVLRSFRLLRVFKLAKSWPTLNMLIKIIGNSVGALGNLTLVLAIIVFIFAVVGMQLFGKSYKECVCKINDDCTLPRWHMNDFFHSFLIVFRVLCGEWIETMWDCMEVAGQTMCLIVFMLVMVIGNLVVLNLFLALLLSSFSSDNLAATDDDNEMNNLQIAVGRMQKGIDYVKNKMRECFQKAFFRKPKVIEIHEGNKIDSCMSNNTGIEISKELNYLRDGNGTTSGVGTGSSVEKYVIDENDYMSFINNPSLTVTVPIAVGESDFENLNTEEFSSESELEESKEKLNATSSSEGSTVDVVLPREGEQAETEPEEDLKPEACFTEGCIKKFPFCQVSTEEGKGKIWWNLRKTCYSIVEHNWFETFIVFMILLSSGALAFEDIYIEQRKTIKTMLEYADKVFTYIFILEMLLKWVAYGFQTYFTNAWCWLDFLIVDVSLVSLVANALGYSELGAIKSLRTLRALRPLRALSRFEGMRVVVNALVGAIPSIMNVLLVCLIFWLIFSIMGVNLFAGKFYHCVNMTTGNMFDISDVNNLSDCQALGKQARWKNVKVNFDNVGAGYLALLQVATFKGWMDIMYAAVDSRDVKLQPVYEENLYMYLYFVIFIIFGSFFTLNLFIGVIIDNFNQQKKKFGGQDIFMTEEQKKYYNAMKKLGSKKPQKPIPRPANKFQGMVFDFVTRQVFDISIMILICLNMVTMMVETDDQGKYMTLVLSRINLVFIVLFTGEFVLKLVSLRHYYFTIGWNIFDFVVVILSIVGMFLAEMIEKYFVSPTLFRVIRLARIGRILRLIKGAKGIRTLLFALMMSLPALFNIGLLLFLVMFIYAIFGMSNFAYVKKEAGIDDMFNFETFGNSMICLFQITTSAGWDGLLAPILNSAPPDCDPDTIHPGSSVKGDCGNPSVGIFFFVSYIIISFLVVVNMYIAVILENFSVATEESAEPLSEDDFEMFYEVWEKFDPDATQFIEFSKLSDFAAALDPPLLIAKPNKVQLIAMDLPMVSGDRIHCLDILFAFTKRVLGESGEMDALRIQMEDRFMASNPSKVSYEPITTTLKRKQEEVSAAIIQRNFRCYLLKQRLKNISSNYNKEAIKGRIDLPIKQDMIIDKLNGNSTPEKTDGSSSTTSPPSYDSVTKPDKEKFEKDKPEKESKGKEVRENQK

[17] = target: T2, Nav1.5 (sodium channel protein type 5 subunit alpha) (Homo sapiens, UniProt Q14524); assay: (§1) Inhibition of human Nav1.5 channel at 1 uM; conditions: human
T2 sequence (Q14524 whole entry): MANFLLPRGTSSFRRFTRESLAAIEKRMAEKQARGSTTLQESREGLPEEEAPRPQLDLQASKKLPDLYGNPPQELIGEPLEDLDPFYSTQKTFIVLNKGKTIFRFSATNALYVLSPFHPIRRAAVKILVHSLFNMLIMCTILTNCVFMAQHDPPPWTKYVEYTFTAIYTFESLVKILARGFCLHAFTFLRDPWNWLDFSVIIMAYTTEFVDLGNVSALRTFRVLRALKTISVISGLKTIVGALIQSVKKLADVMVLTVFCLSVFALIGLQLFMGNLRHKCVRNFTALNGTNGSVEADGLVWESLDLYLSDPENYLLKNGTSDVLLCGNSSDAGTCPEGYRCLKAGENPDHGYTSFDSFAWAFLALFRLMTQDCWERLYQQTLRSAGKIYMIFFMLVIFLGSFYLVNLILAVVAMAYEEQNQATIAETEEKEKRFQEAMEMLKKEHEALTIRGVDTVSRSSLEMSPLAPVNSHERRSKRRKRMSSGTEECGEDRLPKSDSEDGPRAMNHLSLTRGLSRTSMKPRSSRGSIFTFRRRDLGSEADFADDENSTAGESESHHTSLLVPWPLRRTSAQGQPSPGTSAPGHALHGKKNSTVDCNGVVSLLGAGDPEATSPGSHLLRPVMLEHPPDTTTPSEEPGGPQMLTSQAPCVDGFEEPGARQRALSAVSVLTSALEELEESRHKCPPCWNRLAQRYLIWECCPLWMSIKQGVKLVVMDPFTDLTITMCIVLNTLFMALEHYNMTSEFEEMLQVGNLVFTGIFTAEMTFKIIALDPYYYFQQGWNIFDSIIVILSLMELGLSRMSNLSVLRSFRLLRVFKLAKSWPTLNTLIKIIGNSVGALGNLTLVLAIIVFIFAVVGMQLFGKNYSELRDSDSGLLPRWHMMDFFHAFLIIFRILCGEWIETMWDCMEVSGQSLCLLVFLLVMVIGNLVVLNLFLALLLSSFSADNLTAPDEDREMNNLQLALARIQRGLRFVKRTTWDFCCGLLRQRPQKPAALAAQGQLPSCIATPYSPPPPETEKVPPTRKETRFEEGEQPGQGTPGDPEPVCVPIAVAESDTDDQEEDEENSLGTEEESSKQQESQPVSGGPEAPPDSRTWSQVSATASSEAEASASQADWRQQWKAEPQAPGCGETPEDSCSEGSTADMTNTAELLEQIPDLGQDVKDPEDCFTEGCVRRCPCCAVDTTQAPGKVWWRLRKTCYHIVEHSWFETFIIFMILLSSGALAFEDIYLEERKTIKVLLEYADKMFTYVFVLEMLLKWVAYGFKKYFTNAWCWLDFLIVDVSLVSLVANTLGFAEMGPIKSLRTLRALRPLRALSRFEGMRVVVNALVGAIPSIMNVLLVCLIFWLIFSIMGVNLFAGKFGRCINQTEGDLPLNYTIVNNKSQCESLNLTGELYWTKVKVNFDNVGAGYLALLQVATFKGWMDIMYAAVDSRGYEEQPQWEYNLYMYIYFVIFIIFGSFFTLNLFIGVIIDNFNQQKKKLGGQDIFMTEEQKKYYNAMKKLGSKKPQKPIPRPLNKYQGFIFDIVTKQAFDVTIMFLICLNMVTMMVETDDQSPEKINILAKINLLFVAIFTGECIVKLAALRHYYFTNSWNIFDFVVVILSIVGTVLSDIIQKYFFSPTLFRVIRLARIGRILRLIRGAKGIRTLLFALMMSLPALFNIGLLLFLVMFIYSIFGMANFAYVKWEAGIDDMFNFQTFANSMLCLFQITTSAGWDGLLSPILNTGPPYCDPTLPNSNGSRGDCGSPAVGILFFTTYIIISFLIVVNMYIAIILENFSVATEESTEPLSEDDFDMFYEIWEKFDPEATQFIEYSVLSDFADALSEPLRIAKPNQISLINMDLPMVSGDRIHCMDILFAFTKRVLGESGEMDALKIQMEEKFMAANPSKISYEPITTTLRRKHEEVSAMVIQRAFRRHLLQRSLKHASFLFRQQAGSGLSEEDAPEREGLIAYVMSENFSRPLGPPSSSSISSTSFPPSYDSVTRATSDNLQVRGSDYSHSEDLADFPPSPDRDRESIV

[18] = target: T1, Sodium channel protein type 10 subunit alpha; assay: Activity at human recombinant Nav 1.8 channel expressed in HEK293 cells in inactivated state with prepulse voltage of -40 mV assessed as blockade of TTx-resistant sodium current at 1 uM; type: cell-based
D(1A) dopamine receptor [19] = target: T3, D(1A) dopamine receptor (Homo sapiens, UniProt P21728); assay: Binding affinity to dopamine D1 receptor
T3 sequence (P21728 whole entry): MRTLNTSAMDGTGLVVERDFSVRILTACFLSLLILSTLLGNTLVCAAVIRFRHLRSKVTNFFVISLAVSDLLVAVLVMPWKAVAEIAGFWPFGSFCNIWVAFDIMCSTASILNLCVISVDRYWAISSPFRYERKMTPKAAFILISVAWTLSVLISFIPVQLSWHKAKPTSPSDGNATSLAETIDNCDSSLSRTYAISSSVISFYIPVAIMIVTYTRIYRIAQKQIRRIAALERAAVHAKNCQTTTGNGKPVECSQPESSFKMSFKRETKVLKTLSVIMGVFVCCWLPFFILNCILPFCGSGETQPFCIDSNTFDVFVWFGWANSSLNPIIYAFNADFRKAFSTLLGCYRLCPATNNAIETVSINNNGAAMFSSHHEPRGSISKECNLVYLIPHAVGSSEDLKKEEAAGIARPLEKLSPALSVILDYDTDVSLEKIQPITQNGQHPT

[20] = target: T1, Sodium channel protein type 10 subunit alpha; assay: Activity at human recombinant Nav 1.8 channel expressed in HEK293 cells in inactivated state with prepulse voltage of -40 mV assessed as blockade of TTx-resistant sodium current at 0.003 uM; type: cell-based
[21] = target: T1, Sodium channel protein type 10 subunit alpha; assay: Activity at human recombinant Nav 1.8 channel expressed in HEK293 cells in resting state with prepulse voltage of -100 mV assessed as blockade of TTx-resistant sodium current at 0.003 uM; type: cell-based
Rattus norvegicus [22] = assay: Antinociceptive activity in ip dosed Sprague-Dawley rat assessed as reduction of mechanical allodynia in Bennett model of neuropathic pain; type: functional; set-up: Activity: scale not given: the % may be the effect or the level left
[23] = target: T1, Sodium channel protein type 10 subunit alpha; assay: Inhibition of human recombinant Nav 1.8 channel expressed in HEK293 cells at 0.003 uM; type: cell-based
[24] = target: T1, Sodium channel protein type 10 subunit alpha; assay: Inhibition of human recombinant Nav 1.8 channel expressed in HEK293 cells at 0.01 uM; type: cell-based
D(1A) dopamine receptor [25] = target: T3, D(1A) dopamine receptor; conditions: 10 uM
[26] = target: Sodium channel protein type 3 subunit alpha (Homo sapiens) (UniProt Q9NY46); assay: Inhibition of human Nav1.3 channel at 10 uM
[27] = target: Sodium channel protein type 9 subunit alpha (Homo sapiens) (UniProt Q15858); assay: Inhibition of human Nav1.7 channel at 10 uM
[28] = target: Sodium channel protein type 9 subunit alpha (Homo sapiens) (UniProt Q15858); assay: Inhibition of human Nav1.7 channel at 3 uM
[29] = target: T2, Nav1.5 (sodium channel protein type 5 subunit alpha); assay: Inhibition of human Nav1.5 channel at 3 uM
[30] = target: Sodium channel protein type 3 subunit alpha (Homo sapiens) (UniProt Q9NY46); assay: Inhibition of human Nav1.3 channel at 3 uM
[31] = target: T4, Cholecystokinin receptor type A (Homo sapiens, UniProt P32238); assay: Binding affinity to CCKAR
T4 sequence (P32238 whole entry): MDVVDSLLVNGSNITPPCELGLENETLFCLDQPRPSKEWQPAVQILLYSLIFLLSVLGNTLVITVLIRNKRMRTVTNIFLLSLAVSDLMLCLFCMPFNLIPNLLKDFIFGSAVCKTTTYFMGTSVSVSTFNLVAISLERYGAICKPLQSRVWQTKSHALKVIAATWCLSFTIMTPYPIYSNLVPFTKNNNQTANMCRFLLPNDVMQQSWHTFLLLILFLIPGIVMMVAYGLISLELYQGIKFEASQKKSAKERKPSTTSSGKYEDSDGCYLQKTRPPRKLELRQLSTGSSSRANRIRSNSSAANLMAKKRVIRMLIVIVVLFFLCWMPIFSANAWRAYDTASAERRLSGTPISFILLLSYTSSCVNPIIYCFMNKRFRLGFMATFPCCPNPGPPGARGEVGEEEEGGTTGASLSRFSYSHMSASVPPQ

[32] = Activity at rat dorsal root ganglion in resting state with prepulse voltage of -100 mV assessed as blockade of TTx-resistant sodium current at 0.1 uM by whole-cell patch clamp technique; type: functional
Translocator protein [33] = target: T5, Translocator protein (Homo sapiens, UniProt P30536); assay: Binding affinity to peripheral benzodiazepine receptor at 10 uM
T5 sequence (P30536 whole entry): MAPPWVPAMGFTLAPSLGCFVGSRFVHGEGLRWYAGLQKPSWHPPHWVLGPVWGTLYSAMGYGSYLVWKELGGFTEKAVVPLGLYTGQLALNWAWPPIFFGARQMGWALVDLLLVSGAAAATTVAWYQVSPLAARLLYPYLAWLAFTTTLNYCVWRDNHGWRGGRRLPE

[34] = Volume of distribution at steady state in Sprague-Dawley rat; type: ADME, organism-based; conditions: in vivo, read-out: Vdss
[35] = target: T6, 5-hydroxytryptamine receptor 2A (Homo sapiens, UniProt P28223); conditions: 10 uM
T6 sequence (P28223 whole entry): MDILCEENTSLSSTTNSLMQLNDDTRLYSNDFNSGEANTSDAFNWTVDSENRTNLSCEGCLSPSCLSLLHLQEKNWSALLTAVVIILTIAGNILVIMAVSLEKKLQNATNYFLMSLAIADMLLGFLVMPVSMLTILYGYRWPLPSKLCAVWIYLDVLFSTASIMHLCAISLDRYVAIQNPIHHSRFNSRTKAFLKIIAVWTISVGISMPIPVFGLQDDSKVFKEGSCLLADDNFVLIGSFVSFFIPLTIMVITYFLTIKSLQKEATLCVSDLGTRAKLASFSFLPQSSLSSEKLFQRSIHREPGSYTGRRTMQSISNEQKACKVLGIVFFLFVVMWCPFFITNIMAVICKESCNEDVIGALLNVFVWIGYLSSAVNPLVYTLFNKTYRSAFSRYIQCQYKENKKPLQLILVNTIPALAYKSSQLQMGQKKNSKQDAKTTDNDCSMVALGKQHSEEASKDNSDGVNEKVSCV

[36] = target: T2, Nav1.5 (sodium channel protein type 5 subunit alpha); assay: Inhibition of human Nav1.5 channel at 10 uM
[37] = Binding affinity to melatonin receptor 1
[38] = Activity at rat dorsal root ganglion in inactivated state with prepulse voltage of -40 mV assessed as blockade of TTx-resistant sodium current at 0.1 uM by whole-cell patch clamp technique; type: functional
[39] = target: Sodium channel protein type 2 subunit alpha (Homo sapiens) (UniProt Q99250); assay: Inhibition of human Nav1.2 channel at 10 uM
Rattus norvegicus [40] = assay: Antinociceptive activity in ip dosed Sprague-Dawley rat assessed as reduction of CFA-induced thermal hyperalgesia; type: functional; set-up: Activity: scale not given: the % may be the effect or the level left
Translocator protein [41] = target: T5, Translocator protein; assay: Binding affinity to peripheral benzodiazepine receptor
[42] = Ratio of drug level in brain to plasma in Sprague-Dawley rat; type: ADME
[43] = target: T7, Cholecystokinin receptor type A (Homo sapiens) (UniProt P32238); conditions: 10 uM
T7 sequence (whole entry): T4 sequence (P32238 whole entry)

[44] = target: T1, Sodium channel protein type 10 subunit alpha; assay: Activity at human recombinant Nav 1.8 channel expressed in HEK293 cells in resting state with prepulse voltage of -100 mV assessed as blockade of TTx-resistant sodium current at 0.01 uM; type: cell-based
[45] = Half life in Sprague-Dawley rat; type: ADME, organism-based; conditions: in vivo
[46] = target: Sodium channel protein type 2 subunit alpha (Homo sapiens) (UniProt Q99250); assay: Inhibition of human Nav1.2 channel at 3 uM
[47] = target: T1, Sodium channel protein type 10 subunit alpha; assay: Activity at human recombinant Nav 1.8 channel expressed in HEK293 cells in inactivated state with prepulse voltage of -40 mV assessed as blockade of TTx-resistant sodium current at 0.01 uM; type: cell-based
Rattus norvegicus [48] = assay: Antinociceptive activity in ip dosed Sprague-Dawley rat assessed as attenuation of mechanical allodynia in chung model of neuropathic pain; type: functional
[49] = target: Sodium channel protein type 5 subunit alpha (Homo sapiens, UniProt Q14524); assay: as §1
[50] = target: T6, 5-hydroxytryptamine receptor 2A; assay: Binding affinity to 5HT2A receptor
[51] = Rattus norvegicus, Sprague-Dawley, ip

## Cc1cccc(NC(=N)c2ccc(-c3ccc(Cl)cc3)o2)c1.Cl
[1]
  bioavailability: 67%
[2]
  inhibition: 46%
[3]
  inhibition: 75%
[4]
  solubility: 250 µg/mL
[5]
  pIC50: 5.72
[6]
  inhibition at 1 µM: 10%
[7]
  inhibition: 52%
[8]
  inhibition: 5%
[9]
  inhibition: 1%
[10]
  inhibition at 0.3 µM: 2%
[11]
  inhibition: 46%
[12]
  microsomal CLint: 220 µL/min/mg
[13]
  pIC50: 5.68
[14]
  inhibition at 0.3 µM: 45%
[15]
  inhibition at 1 µM: 60%
[16]
  inhibition: 36%
[17]
  inhibition at 1 µM: 56%
[18]
  inhibition: 75%

## COc1cc(NC(=O)c2ccc(-c3ccc(Cl)cc3)o2)cc(OC)c1
D(1A) dopamine receptor [19]
  pIC50: < 5.70
[20]
  inhibition: 30%
[21]
  inhibition: 5%
Rattus norvegicus [22]
  Activity: 56%
Rattus norvegicus [22]; [51]
  ED50: 85 mg/kg
[23]
  inhibition: 30%
[5]
  pIC50: 6.07
[24]
  inhibition: 59%
D(1A) dopamine receptor [25]
  inhibition: > 60%
[26]
  inhibition: 70%
[27]
  inhibition: 54%
[28]
  inhibition: 42%
[29]
  inhibition at 3 µM: 44%
[30]
  inhibition: 52%
[31]
  pIC50: < 5.70
[32]
  inhibition at 0.1 µM: 14%
Translocator protein [33]
  inhibition: > 60%
[10]
  inhibition at 0.3 µM: 48%
[34]
  Vd: 6.4 L/kg
[35]
  inhibition: > 60%
[36]
  inhibition at 10 µM: 49%
[37]
  pIC50: < 5.70
[38]
  inhibition at 0.1 µM: 48%
[39]
  inhibition: 53%
Rattus norvegicus [40]
  Activity: 64%
Rattus norvegicus [40]; [51]
  ED50: 41 mg/kg
Translocator protein [41]
  pIC50: < 5.70
[42]
  Kp: 1.1
[43]
  inhibition: > 60%
[44]
  inhibition: 19%
[45]
  half-life: 7.3 h
[46]
  inhibition: 41%
[12]
  microsomal CLint: 140 µL/min/mg
[47]
  inhibition: 59%
[14]
  inhibition at 0.3 µM: 71%
Rattus norvegicus [48]
  Activity: 70%
Rattus norvegicus [48]; [51]
  ED50: 47 mg/kg
[49]
  pIC50: < 5.70
[50]
  pIC50: < 5.70
